As a reminder, the solubility is how much of the substance goes into solution per volume.

One series is described as follows: Aqueous solubility. The series is classed as physicochemical.
The test system of another series is human plasma proteins. In words: Plasma protein binding. The series is classed as in vitro ADME.
The test system of a further series is HRV-14. Put plainly: Attachment inhibition, 35S-radiolabeled virus. The series is classed as cell-based, human rhinovirus. The note with it: HRV-14, ICAM-1 receptor, FIG. 5. Here is the method:
(§1) The ability of pleconaril to affect the attachment to cells of several HRV serotypes was examined. ^35S-radiolabeled virus was incubated with susceptible cells for 1 hour in the presence of various concentrations of pleconaril. Cell-associated virus was quantified by direct scintillation counting of cell lysates after removal of unbound virus.
(§2) ^35S-radiolabeled virus was preincubated with various concentrations of pleconaril or 0.5% DMSO alone for 1 hour at room temperature. Cells in 6 well plates were inoculated with 20,000 cpm of ^35S-radiolabeled virus/well in 0.5 mL of M199 medium with 5% FBS. Attachment was allowed to proceed for 1 hour at 33° C., at which time the inoculum was removed and the cells washed with 2 mL of medium. The cells were then lysed by a 15 minute incubation on ice in the presence of 250 μL/well of a solution containing detergent 1% Nonident P40 (NP40) and 20 mM chelator, ethylene diamine tetraacetic acid (EDTA) in water. Cell-associated radioactivity was quantified by liquid scintillation spectroscopy in a Wallac Model 1409 Liquid Scintillation Counter (Wallac Oy, Turku, Finland).

In the next series the test system is HRV-1A. Put plainly: Attachment inhibition, 35S-radiolabeled virus. The series is classed as cell-based, human rhinovirus. The note with it: LDL receptor, HeLa cells. Here is the method: as §1, §2
The test system of a further series is HRV-2. Put plainly: Attachment inhibition, 35S-radiolabeled virus. The series is classed as cell-based, human rhinovirus. The note with it: HRV-2, LDL receptor, HeLa cells. Here is the method:
as §1, §2

For the next series, the system named is HRV-3. In words: Attachment inhibition, 35S-radiolabeled virus. The format is cell-based, human rhinovirus. Conditions: HRV-3, ICAM-1 receptor, FIG. 5. Here is the method:
as §1, §2

A further series deals with HRV-50. In words: Attachment inhibition, 35S-radiolabeled virus. The format is cell-based, human rhinovirus. The note with it: HRV-50, ICAM-1 receptor, FIG. 5. Here is the method:
as §1, §2

For a further series, the system named is HRV-89. Put plainly: Attachment inhibition, 35S-radiolabeled virus. The format is cell-based, human rhinovirus. The note with it: HRV-89, ICAM-1 receptor, FIG. 5. Here is the method:
as §1, §2

A further series has as its system HRV3. In words: RNA replication, viral RNA synthesis. The series is classed as cell-based, human rhinovirus. Conditions: 2 μM, pleconaril-treated cells. Here is the method:
Immediately after uncoating, viral gene expression (protein translation) and viral RNA replication begin. However, uncoating must occur before either of these two processes can be initiated. In experiments conducted similarly to the uncoating experiment described above, an experiment was conducted to measure viral RNA synthesis in the presence and absence of pleconaril. At the end of the 2 hours temperature shift, actinomycin D was added to the culture medium to inhibit cellular DNA-dependent RNA synthesis. After 2 hours in the presence of actinomycin D, no cellular RNA synthesis was detectable. At that time, ^3H-uridine was added to the medium and the incubation was allowed to proceed 2.5 hours (a total of 6.5 hours post-attachment). Total cellular RNA was then recovered, electrophoresed on an agarose-urea gel and visualized by fluorography.
HeLa cells in 6 well plates were infected at an MOI of 5 PFU/cell with 1 mL of HRV3 for 1 hour at room temperature in the presence or absence of 2 μM pleconaril. After virus attachment, the incubation was continued for an additional 2 hrs at 33° C. (HRV3). The inoculum was then removed and 3 mL/well of M199 medium with 5% FBS and 5 μg/mL of actinomycin D was added with 2 μM pleconaril or DMSO only (0.5% final concentration). The cells were returned to the incubator for 2 hours, at which time 300 μCi of ^3H-uridine (Amersham) was added per well. […]

In brackets after ≈: the same amount, converted by molar mass. Bounds are passed on as bounds.

In the series “Aqueous solubility”, `Cc1cc(CCCOc2c(C)cc(-c3noc(C(F)(F)F)n3)cc2C)on1` [pleconaril, 3-[3,5-dimethyl-4-[3-(3-methyl-5-isoxazolyl)propoxy]phenyl]-5-(trifluoromethyl)-1,2,4-oxadiazole] gave a solubility of 0.02 µg/mL (≈ 0.0524 µM). In the series on human plasma proteins, this molecule had a protein bound above 99%. In addition, the “attachment of virus to cells” value with HRV-14 was “inhibited”; with HRV-1A, “able to bind to HeLa cells normally”; with HRV-2, “able to bind to HeLa cells normally”; with HRV-3, “inhibited”; in the series on HRV-50, “inhibited”; in the series with HRV-89 it was “inhibited”. Besides, the “HRV3 RNA synthesis” value in the series on HRV3 was “completely blocked”.
